Experimental findings from US12540141B2, “Spiropyrrolidine derived antiviral agents” (priority 2020, dated 2026) are described below.

This test addresses SARS-CoV-2 3CL-protease (Severe acute respiratory syndrome coronavirus 2, UniProt P0DTD1). The experiment in a line: SARS-CoV-2 3C-Like (3CL) Protease Fluorescence Assay (FRET). The format is biochemical. Conditions: SARS-CoV-2 3CL-protease 10 nM, 30 min preincubation at RT, substrate 40 μM.
For the molecule `CN(C(=O)OCc1ccccc1)[C@@H](Cc1ccc(OCc2ccccc2)cc1)C(=O)N1C[C@]2(C[C@H]1C#N)C(=O)Nc1ccccc12` [Example 387], the half-maximal inhibitory concentration (IC50) was over 1000 nM.
As to `COc1cccc2[nH]c(C(=O)N(C)[C@@H](COC(C)(C)C)C(=O)N3C[C@]4(C[C@H]3C#N)C(=O)Nc3ccccc34)cc12` [Example 370], the IC50 was under 100 nM.
In turn, `CC(C)C[C@@H](C(=O)N1C[C@]2(C[C@H]1C#N)C(=O)Nc1ccccc12)N(C)C(=O)c1cc(F)c2nn(C)cc2c1` [Example 309] gave an IC50 of under 100 nM.
`[2H]C([2H])([2H])N(C(=O)c1cnn(-c2ccc(C(F)(F)F)cc2)c1)[C@@H](CC1CC1)C(=O)N1C[C@]2(C[C@H]1C#N)C(=O)Nc1ccccc12` [Example 396] showed an IC50 of under 100 nM.
In turn, `[2H]C([2H])([2H])N(C(=O)c1cn(-c2ccc(Cl)cc2)nn1)[C@@H](CC(C)(C)C)C(=O)N1C[C@]2(C[C@H]1C#N)C(=O)Nc1ccccc12` [Example 377] displayed an IC50 of under 100 nM.
As for `CC(C)(C)C[C@H](NC(=O)OC(C)(C)c1ccc(F)cc1)C(=O)N1C[C@]2(C[C@H]1C#N)C(=O)Nc1ccc(Cl)cc12` [Example 496], the IC50 is over 1000 nM.
For the molecule `CC(C)C[C@@H](C(=O)N1C[C@]2(C[C@H]1C#N)C(=O)Nc1ccccc12)N(C)C(=O)c1cc(OC(F)(F)F)c2ncccc2c1` [Example 322], the IC50 is under 100 nM.
Next, `[2H]C([2H])([2H])N(C(=O)c1cn(C2CC2)nn1)[C@@H](Cc1ccc(F)cc1)C(=O)N1C[C@]2(C[C@H]1C#N)C(=O)Nc1ccccc12` [Example 391]: under 100 nM.
Take `CC(C)C[C@@H](C(=O)N1C[C@]2(C[C@H]1C#N)C(=O)Nc1ccc(-c3cnoc3)cc12)N(C)C(=O)c1cc2c(F)cc(F)cc2[nH]1` [Example 515]: the IC50 was under 100 nM.
`CN(C(=O)c1cc2c(F)cc(F)c(F)c2[nH]1)[C@@H](CC(C)(C)F)C(=O)N1C[C@]2(C[C@H]1C#N)C(=O)Nc1ncccc12` [Example 551] displayed an IC50 of under 100 nM.
Next, `CC(C)C[C@@H](C(=O)N1C[C@]2(C[C@H]1C#N)C(=O)Nc1ccccc12)N(C)C(=O)c1cc2cc(C(F)(F)F)cnc2[nH]1` [Example 488]: under 100 nM; `CC(C)C[C@@H](C(=O)N1C[C@]2(C[C@H]1C(=O)CO)C(=O)Nc1ccccc12)N(C)C(=O)c1cc2c(F)cc(F)cc2[nH]1` [Example 157]: over 1000 nM.
In the case of `CC(C)C[C@@H](C(=O)N1C[C@]2(C[C@H]1C#N)C(=O)Nc1ncccc12)N(C)C(=O)c1cc2c(F)cc(F)cc2[nH]1` [Example 549] it was under 100 nM.
`CC(C)C[C@@H](C(=O)N1C[C@]2(C[C@H]1C#N)C(=O)Nc1ccccc12)N(C)C(=O)c1ccc2cn[nH]c2c1` [Example 223] yielded an IC50 of 100 to 1000 nM.
Take `[2H]C([2H])([2H])N(C(=O)c1cn(C2CCC2)nn1)[C@@H](CCCC)C(=O)N1C[C@]2(C[C@H]1C#N)C(=O)Nc1ccccc12` [Example 392]: the IC50 was under 100 nM.
In the case of `CN(C(=O)c1cnc(C(F)(F)F)[nH]1)[C@@H](CC1CC1)C(=O)N1C[C@]2(C[C@H]1C#N)C(=O)Nc1ccccc12` [Example 407] it was under 100 nM; in that of `COc1ccc(C(=O)N(C)[C@@H](CC(C)C)C(=O)N2C[C@]3(C[C@H]2C#N)C(=O)Nc2ccccc23)cc1C(F)(F)F` [Example 181], under 100 nM.
In turn, `[2H]C([2H])([2H])N(C(=O)[C@H](O)c1ccccc1)[C@@H](CC(C)(C)C)C(=O)N1C[C@]2(C[C@H]1C#N)C(=O)Nc1ccccc12` [Example 428] registered an IC50 of under 100 nM.
Turning to `[2H]C([2H])([2H])N(C(=O)c1nnn2ccccc12)[C@@H](CCCC)C(=O)N1C[C@]2(C[C@H]1C#N)C(=O)Nc1ccccc12` [Example 397], the IC50 is under 100 nM.
`Cc1cc(C)c2ccc(C(=O)N(C)[C@@H](CC(C)C)C(=O)N3C[C@]4(C[C@H]3C#N)C(=O)Nc3ccccc34)nc2c1O` [Example 259] registered an IC50 of 100 to 1000 nM.
`CN(C(=O)CCN1CCCCC1)[C@@H](CC(C)(C)F)C(=O)N1C[C@]2(C[C@H]1C#N)C(=O)Nc1ccccc12` [Example 542]: the IC50 was under 100 nM.
`CC(C)C[C@@H](C(=O)N1C[C@]2(C[C@H]1C#N)C(=O)Nc1ccccc12)N(C)C(=O)c1nc2c(F)cc(F)c(F)c2[nH]1` [Example 270] yielded an IC50 of under 100 nM.
As for `[2H]C([2H])([2H])N(C(=O)C1(c2ccncc2)CC1)[C@@H](CC(C)(C)F)C(=O)N1C[C@]2(C[C@H]1C#N)C(=O)Nc1ccc(Cl)cc12` [Example 475], the IC50 is under 100 nM.
In the case of `N#C[C@@H]1C[C@@]2(CN1C(=O)[C@H](CC1CC1)NC(=O)OCc1ccc(F)cc1F)C(=O)Nc1ccc(Cl)cc12` [Example 493] it was under 100 nM; in that of `CC(C)C[C@@H](C(=O)N1C[C@]2(C[C@H]1C#N)C(=O)Nc1ccccc12)N(C)C(=O)c1cc(Cl)c2nn(C3CC3)cc2c1` [Example 316], under 100 nM.
With `CC(C)C[C@@H](C(=O)N1C[C@]2(C[C@H]1C#N)C(=O)Nc1ccccc12)N(C)C(=O)c1ccc2ncc(F)cc2c1` [Example 235], the IC50 was under 100 nM.
In turn, `CC(C)C[C@@H](C(=O)N1C[C@]2(C[C@H]1C#N)C(=O)Nc1ccccc12)N(C)C(=O)c1ccc2ccncc2c1` [Example 217] registered a half-maximal inhibitory concentration (IC50) of 100 to 1000 nM.
On to `CC(C)C[C@@H](C(=O)N1C[C@]2(C[C@H]1C#N)C(=O)Nc1ccccc12)N(C)C(=O)c1cnc2c(C(F)(F)F)cccc2c1` [Example 268], for which the IC50 was in the range of 100 to 1000 nM.
`CC(C)C[C@@H](C(=O)N1C[C@]2(C[C@H]1C#N)C(=O)Nc1ccccc12)N(C)C(=O)c1cc2c(Cl)c(Cl)ccc2[nH]1` [Example 328] yielded an IC50 of under 100 nM.
In the case of `CC(C)C[C@@H](C(=O)N1C[C@]2(C[C@H]1C#N)C(=O)Nc1ccccc12)N(C(=O)OCc1ccccc1)C(C)C` [Example 160] it was over 1000 nM; in that of `CC(C)C[C@H](NC(=O)c1cc2c(F)cccc2[nH]1)C(=O)N1C[C@]2(C[C@H]1C#N)C(=O)Nc1cccc(Cl)c12` [Example 528], 100 to 1000 nM; in that of `CC(C)C[C@@H](C(=O)N1C[C@]2(C[C@H]1C#N)C(=O)Nc1ccccc12)N(C)C(=O)N1CC[C@H](O)C1` [Example 335], 100 to 1000 nM.
`CC(C)C[C@@H](C(=O)N1C[C@]2(C[C@H]1C#N)C(=O)Nc1ccccc12)N(C)C(=O)c1cncc(C(F)(F)F)c1` [Example 195]: the IC50 is under 100 nM.
In the case of `CC(C)C[C@@H](C(=O)N1C[C@]2(C[C@H]1C#N)C(=O)Nc1ccccc12)N(C)C(=O)c1cc(F)c2nc(C(F)F)cn2c1` [Example 341], the IC50 fell in the range of 100 to 1000 nM.
Next, `CC(C)C[C@@H](C(=O)N1C[C@]2(C[C@H]1C#N)C(=O)Nc1ccccc12)N(C)C(=O)c1ccn(C)n1` [Example 204]: 100 to 1000 nM; `CC[C@@H](C(=O)N1C[C@]2(C[C@H]1C#N)C(=O)Nc1ccccc12)N(C)C(=O)c1cc2c(F)cc(F)cc2[nH]1` [Example 385]: 100 to 1000 nM.
For the molecule `CC(C)C[C@@H](C(=O)N1C[C@]2(C[C@H]1C#N)C(=O)Nc1ccccc12)N(C)C(=O)c1ccc2nccc(Br)c2c1` [Example 274], the IC50 is under 100 nM.
In the case of `CC(C)C[C@@H](C(=O)N1C[C@]2(C[C@H]1C#N)C(=O)Nc1ccccc12)N(C)C(=O)c1cnc2ccccc2c1O` [Example 260] it was 100 to 1000 nM; in that of `CC(C)(C)C[C@H](NC(=O)c1cnn(CC(F)(F)F)c1)C(=O)N1C[C@]2(C[C@H]1C#N)C(=O)Nc1ccccc12` [Example 144], under 100 nM.
For the molecule `CC(C)C[C@@H](C(=O)N1C[C@]2(C[C@H]1C#N)C(=O)Nc1ccccc12)N(C)C(=O)c1cnc2cnccc2c1` [Example 301], the IC50 was under 100 nM.
Next, `CN(C(=O)C(F)(F)F)[C@@H](CC(C)(C)C)C(=O)N1C[C@]2(C[C@H]1C#N)C(=O)Nc1ccccc12` [Example 374]: 100 to 1000 nM; `COc1cc(C(=O)N(C)[C@@H](CC(C)C)C(=O)N2C[C@]3(C[C@H]2C#N)C(=O)Nc2ccccc23)cc2cn(C3CCC3)nc12` [Example 320]: under 100 nM.
Consider `CN(C(=O)c1cn(CC(F)(F)F)nn1)[C@@H](Cc1ccccc1)C(=O)N1C[C@]2(C[C@H]1C#N)C(=O)Nc1ccccc12` [Example 362], for which the IC50 was under 100 nM.
`CC(C)(C)C[C@H](NC(=O)c1cc(OC(F)F)c2ncccc2c1)C(=O)N1C[C@]2(C[C@H]1C#N)C(=O)Nc1ccccc12` [Example 139] registered an IC50 of under 100 nM.
Consider `CC(C)C[C@@H](C(=O)N1C[C@]2(C[C@H]1C#N)C(=O)Nc1ccc(NC(=O)C3(F)CC3)cc12)N(C)C(=O)c1cc2c(F)cc(F)cc2[nH]1` [Example 504, N—((S)-1-((3R,5′S)-5′-cyano-5-(1-fluorocyclopropane-1-carboxamido)-2-oxospiro[indoline-3,3′-pyrrolidin]-1′-yl)-4-methyl-1-oxopentan-2-yl)-4,6-difluoro-N-methyl-1H-indole-2-carboxamide], for which the IC50 is under 100 nM.
`CC(C)(C)n1cc(C(=O)N[C@@H](CC2CC2)C(=O)N2C[C@]3(C[C@H]2C#N)C(=O)Nc2ccccc23)cn1` [Example 132]: the IC50 is under 100 nM.
With `[2H]C([2H])([2H])N(C(=O)c1cn(CC(F)(F)F)nc1C1CC1)[C@@H](CC1CC1)C(=O)N1C[C@]2(C[C@H]1C#N)C(=O)Nc1ccccc12` [Example 401], the IC50 was under 100 nM.
Next, `CC(C)C[C@@H](C(=O)N1C[C@]2(C[C@H]1C#N)C(=O)Nc1ccccc12)N(C)C(=O)C#Cc1ccccc1` [Example 248]: 100 to 1000 nM; `COc1cc(C(=O)N(C)[C@@H](CC(C)C)C(=O)N2C[C@]3(C[C@H]2C#N)C(=O)Nc2ccccc23)nc2ccccc12` [Example 258]: 100 to 1000 nM.
In turn, `CC(C)C[C@@H](C(=O)N1C[C@]2(C[C@H]1C#N)C(=O)Nc1ccccc12)N(C)C(=O)c1ccc(OC2CC2)c(-c2cccnc2)c1` [Example 343] gave an IC50 of under 100 nM.
In the case of `CC(C)C[C@@H](C(=O)N1C[C@]2(C[C@H]1C#N)C(=O)Nc1ccccc12)N(C)C(=O)c1cc(OC2CC2)c2nc(Cl)ccc2c1` [Example 310] it was under 100 nM; in that of `CC(C)C[C@@H](C(=O)N1C[C@]2(C[C@H]1C#N)C(=O)Nc1ccccc12)N(C)C(=O)c1ccccc1-c1ccccc1` [Example 261], 100 to 1000 nM.
